In patent US20250034216A1, “STEREOSELECTIVE COVALENT LIGANDS FOR ONCOGENIC AND IMMUNOLOGICAL PROTEINS” (The Scripps Research Institute, priority 2021, published 2025):

Legend:
CTC1_C584 = biological target: T1, CTC1_C584 (Homo sapiens, UniProt Q2NKJ3); experiment: IA-DTB cysteine engagement; assay type: binding; settings: 22Rv1 cells, 20 μM probe, 1 h, relative to DMSO
T1 construct: endogenous in cells; host or cells: 22Rv1
T1 sequence (Q2NKJ3 1-1217): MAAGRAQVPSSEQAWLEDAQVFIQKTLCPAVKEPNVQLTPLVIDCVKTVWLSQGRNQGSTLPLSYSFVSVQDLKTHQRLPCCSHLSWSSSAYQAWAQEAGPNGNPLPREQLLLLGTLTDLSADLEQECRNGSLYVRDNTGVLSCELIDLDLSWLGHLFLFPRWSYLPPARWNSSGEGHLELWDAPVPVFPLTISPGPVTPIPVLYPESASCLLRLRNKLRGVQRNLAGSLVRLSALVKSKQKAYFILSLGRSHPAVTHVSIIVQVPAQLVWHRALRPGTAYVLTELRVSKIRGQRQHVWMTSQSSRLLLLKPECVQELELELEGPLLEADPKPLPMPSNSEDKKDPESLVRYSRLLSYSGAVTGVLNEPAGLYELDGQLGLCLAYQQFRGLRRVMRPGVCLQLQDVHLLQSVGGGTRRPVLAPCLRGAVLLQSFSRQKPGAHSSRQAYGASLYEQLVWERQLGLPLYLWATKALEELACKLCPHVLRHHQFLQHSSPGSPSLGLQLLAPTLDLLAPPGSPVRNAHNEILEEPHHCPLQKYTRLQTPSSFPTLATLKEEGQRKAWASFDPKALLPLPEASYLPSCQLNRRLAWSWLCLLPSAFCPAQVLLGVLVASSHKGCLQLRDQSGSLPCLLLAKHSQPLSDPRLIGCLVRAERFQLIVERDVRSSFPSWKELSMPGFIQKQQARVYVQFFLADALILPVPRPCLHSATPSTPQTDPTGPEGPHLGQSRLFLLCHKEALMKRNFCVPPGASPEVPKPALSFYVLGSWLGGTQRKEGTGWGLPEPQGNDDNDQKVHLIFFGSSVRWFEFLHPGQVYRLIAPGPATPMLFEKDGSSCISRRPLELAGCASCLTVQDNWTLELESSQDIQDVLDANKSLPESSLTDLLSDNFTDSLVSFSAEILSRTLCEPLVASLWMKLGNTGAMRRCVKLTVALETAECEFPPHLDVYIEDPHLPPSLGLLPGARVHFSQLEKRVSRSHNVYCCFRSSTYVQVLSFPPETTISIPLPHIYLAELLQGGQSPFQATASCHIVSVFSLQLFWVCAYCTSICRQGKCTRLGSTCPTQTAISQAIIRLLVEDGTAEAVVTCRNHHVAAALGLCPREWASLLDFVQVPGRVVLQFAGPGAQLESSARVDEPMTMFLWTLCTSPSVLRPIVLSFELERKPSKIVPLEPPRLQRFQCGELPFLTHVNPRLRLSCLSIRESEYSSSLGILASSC
Method in brief: (§1)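 Cells were treated in situ with electrophilic probes, then lysed, and the lysates (2 mg/mL protein) were labeled with IA-DTB for 1 h at ambient temperature. After reduction, alkylation and trypsin digestion, labeled peptides were streptavidin-enriched, TMT-labeled and fractionated. Engagement ratios are probe vs DMSO reporter intensities, averaged across replicates.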

ANKRD46_C61 = biological target: T2, ANKRD46_C61 (Homo sapiens, UniProt Q86W74); experiment: IA-DTB cysteine engagement; assay type: binding; settings: 22Rv1 cells, 20 μM probe, 1 h, relative to DMSO
T2 construct: endogenous in cells; host or cells: 22Rv1
T2 sequence (Q86W74 1-228): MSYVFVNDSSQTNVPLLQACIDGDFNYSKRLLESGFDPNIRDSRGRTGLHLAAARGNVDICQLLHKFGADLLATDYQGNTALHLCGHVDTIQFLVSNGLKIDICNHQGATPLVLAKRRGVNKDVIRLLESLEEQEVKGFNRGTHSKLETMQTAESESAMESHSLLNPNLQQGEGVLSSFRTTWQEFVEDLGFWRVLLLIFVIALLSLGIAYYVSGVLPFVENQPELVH
Method in brief: as §1

SMILES	% engagement CTC1_C584 (CTC1_C584)	% engagement ANKRD46_C61 (ANKRD46_C61)
C=CC(=O)N1C[C@@H](c2ccc(Br)cc2)[C@H]1C(=O)Nc1cccc2cccnc12 [MY-1A, (2S,3R)-1-acryloyl-3-(4-bromophenyl)-N-(quinolin-8-yl)azetidine-2-carboxamide]	20.25%	17.5%
C=CC(=O)N1C[C@H](c2ccc(Br)cc2)[C@@H]1C(=O)Nc1cccc2cccnc12 [MY-1B, (2R,3S)-1-acryloyl-3-(4-bromophenyl)-N-(quinolin-8-yl)azetidine-2-carboxamide]	37.25%	28.5%
C=CC(=O)N1C[C@H](c2ccc(Br)cc2)[C@H]1C(=O)Nc1cccc2cccnc12 [MY-3A, (2S,3S)-1-acryloyl-3-(4-bromophenyl)-N-(quinolin-8-yl)azetidine-2-carboxamide]	23.5%	5.5%
C=CC(=O)N1C[C@H](c2ccc(Br)cc2)[C@H]1C(=O)Nc1cccc2cccnc12 [MY-3B, (2S,3S)-1-acryloyl-3-(4-bromophenyl)-N-(quinolin-8-yl)azetidine-2-carboxamide]	66.25%	66.5%
